Results on one compound are retold here after publication PMC6030077, “Dual role of HDAC10 in lysosomal exocytosis and DNA repair promotes neuroblastoma chemoresistance” (Scientific Reports, 2018).

In one data set the target is T1, HDAC10 (Homo sapiens, UniProt Q969S8).
T1 construct: NanoLuc®-HDAC10 FL Fusion Vector; host or cells: HeLa cells, stably transfected
T1 sequence (Q969S8 1-669): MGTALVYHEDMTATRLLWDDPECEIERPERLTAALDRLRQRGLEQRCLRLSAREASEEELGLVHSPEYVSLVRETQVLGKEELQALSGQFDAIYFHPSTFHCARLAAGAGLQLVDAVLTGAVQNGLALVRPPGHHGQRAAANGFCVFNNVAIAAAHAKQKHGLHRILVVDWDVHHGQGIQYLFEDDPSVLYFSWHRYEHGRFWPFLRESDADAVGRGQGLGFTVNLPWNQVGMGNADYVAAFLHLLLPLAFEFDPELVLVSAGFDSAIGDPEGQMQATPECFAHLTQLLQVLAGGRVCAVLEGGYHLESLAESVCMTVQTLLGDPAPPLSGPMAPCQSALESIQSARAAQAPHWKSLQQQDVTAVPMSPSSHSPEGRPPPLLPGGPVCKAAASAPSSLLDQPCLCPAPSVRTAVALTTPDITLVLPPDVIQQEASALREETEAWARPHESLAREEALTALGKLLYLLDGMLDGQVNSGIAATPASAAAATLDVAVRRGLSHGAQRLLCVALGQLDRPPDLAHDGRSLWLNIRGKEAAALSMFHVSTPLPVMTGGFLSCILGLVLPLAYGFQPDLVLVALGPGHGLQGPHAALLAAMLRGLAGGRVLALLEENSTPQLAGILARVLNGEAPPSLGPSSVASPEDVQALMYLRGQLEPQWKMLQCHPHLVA
Briefly: In-cell target engagement (NanoBRET) assay, NanoLuc-HDAC10. Type of data set: binding. An excerpt: We next investigated if accumulation of lysosomes was also affected by inhibition of HDAC6 and HDAC10, respectively. […] Since no bona fide downstream target protein of HDAC10 has been described to date, we performed an in-cell target engagement (NanoBRET) assay that measures competitive displacement of a fluorescently-labeled tracer from NanoLuc® Luciferase coupled HDAC10 enzyme. […] To exclude that lysosomal accumulation after treatment with HDAC6/10 inhibitors was caused by off-target inhibition of class I HDACs, we treated BE(2)-C cells with 1 mM class I HDAC inhibitor valproic acid (VPA).
HeLa cells, stabily transfected with NanoBRET plasmids NanoLuc®-HDAC6 FL Fusion Vector and NanoLuc®-HDAC10 FL Fusion Vector (Promega, Madison, WI, USA) were seeded at 20.000 cells/well in white 96 well plates. Without further incubation, tracer (0.3 µM) and drugs were added in separate steps and plates were placed in a tissue culture incubator for 2 h. For NanoBRET quantification, plates were put at room temperature for 10 minutes. Nanoglow substrate, diluted in OptiMEM without phenol red, was added and measured within 10 minutes in an OPTIMA plate reader (460 nm emission for donor and 610LP filter for acceptor). The BRET signal was calculated by the ratio of acceptor signal and donor signal.
For orientation: Bioluminescence resonance energy transfer reports proximity on the nanometre scale.

Data set [1] concerns BE(2)-C cells. Briefly: Flow cytometric analysis of γH2A.X staining (DNA double-strand breaks). Type of data set: cell-based, human. Particulars: 24 h, tubastatin A 7.5 µM, vacuolin-1 10 µM. On the procedure: Cells were dissociated from dishes using non-enzymatic cell dissociation reagent for five minutes. Cells were counted using a ViCell XR automatic cell counter (Beckmann Coulter) and 2.5 ∗ 10^5 cells were transferred into a pre-cooled 96-well round bottom plate (TPP92097). […] Cells were washed three times in FACS buffer (5% FBS in PBS) after each antibody incubation step. For evaluation of DNA double-strand breaks, cells were detached from dishes using trypsin, counted using a ViCell XR automatic cell counter (Beckmann Coulter) and transferred into a pre-cooled 96-well round bottom plate (4 ∗ 10^6 cells/well). Cells were fixed and permeabilized using the eBioscience^TM Foxp3/Transcription Factor Staining Buffer Set (Thermo Fisher Scientific). […] Cells were washed three times in 1× permeabilization buffer after each antibody incubation step and fluorescence was quantified on a BD FACSCanto II platform.
A general note: Flow cytometry measures light scatter and fluorescence of single cells or particles in a stream.

The subject of data set [2] is BE(2)-C cells. The experiment in a line: Flow cytometric analysis of cell surface LAMP-1 (lysosomal exocytosis). Type of data set: cell-based, human. Particulars: 6 h tubastatin A 7.5 µM, bufexamac 30 µM, tubacin 7.5 µM, vacuolin-1 10 µM 1 h. On the procedure: (§1) Cells were dissociated from dishes using non-enzymatic cell dissociation reagent for five minutes. Cells were counted using a ViCell XR automatic cell counter (Beckmann Coulter) and 2.5 ∗ 10^5 cells were transferred into a pre-cooled 96-well round bottom plate (TPP92097). Cells were stained for 1.5–2 hours on ice with primary anti P-gp (Biozol ABA-AB00143-1.1), LAMP-1 (H4A3, DHSB) antibody or isotype control (DLN-05794, Dianova, […]) and for 1 hour with APC-labeled secondary antibody (Dianova 115-136-068). Cells were washed three times in FACS buffer (5% FBS in PBS) after each antibody incubation step. For evaluation of DNA double-strand breaks, cells were detached from dishes using trypsin, counted using a ViCell XR automatic cell counter (Beckmann Coulter) and transferred into a pre-cooled 96-well round bottom plate (4 ∗ 10^6 cells/well). Cells were fixed and permeabilized using the eBioscience^TM Foxp3/Transcription Factor Staining Buffer Set (Thermo Fisher Scientific). Cells were stained for 1.5 h with Phospho-Histone H2A.X (S139) primary antibody (CST #9718) and for 1 h in Alexa-488-labeled secondary antibody (ThermoFisher A-11008). Cells were washed three times in 1× permeabilization buffer after each antibody incubation step and fluorescence was quantified on a BD FACSCanto II platform.

The next data set has as its system P-glycoprotein. Briefly: Flow cytometric quantification of cell surface P-gp expression. Particulars: BE(2)-C; 6 h tubastatin A 7.5 µM; vacuolin-1 10 µM 1 h. It is filed as cell-based, human. Here is the method:
as §1

Data set [3] has as its system proliferating human fibroblasts. Briefly: Cell viability, automated trypan blue exclusion, fibroblasts. Type of data set: cell-based. Particulars: 7.5 µM tubastatin A. Here is the method:
Adherent cell lines were trypsinized and cells were pooled with corresponding supernatant, centrifuged and resuspended in 1.5 ml cell culture media. Cell viability was measured by automated trypan blue staining with the Vi-Cell XR Cell Viability Analyzer from Beckman Coulter (Krefeld, Germany).

Data set [4] deals with BE(2)-C cells. The experiment in a line: Alkaline single cell gel electrophoresis assay (comet assay). It is filed as cell-based, human. Particulars: 18 h. Here is the method: BE(2)-C cells were treated with the HDAC6/10 inhibitor tubastatin A alone or in combination with the genotoxic drug doxorubicin (100 ng/ml doxorubicin, 7.5 µM tubastatin) for 18 h. Untreated cell aliquots and cells irradiated with 5 Gy (^137Cs radiation source, dose rate of 1 Gy min^−1) were used as negative and positive controls, respectively. Cells were subsequently analyzed by the alkaline comet assay as previously described[68],[69] with some modifications. In brief, the cells were mixed with 0.7% low-melting temperature agarose (Biozym), plated on two-well slides (Trevigen), and subsequently lysed overnight. Single cell electrophoresis was performed at 4 °C. Analysis of DNA damage was accomplished by fluorescence microscopy using a fully automated cell scanning system Metafer-4 (Metasystems) as described in[70]. DNA damage was assessed as “Tail DNA in %”. Statistical evaluation of two differently treated cell aliquots was performed with the Mann Whitney test using GraphPad Prism version 5.04 for Windows.

With `CN1CCc2c(c3ccccc3n2Cc2ccc(C(=O)NO)cc2)C1` [tubastatin A], at HDAC10, the “affinity towards HDAC10 (NanoBRET tracer displacement)” value is given as “strong affinity towards HDAC10”. Further, the “DSBs (γH2A.X), co-treatment with doxorubicin compared to doxorubicin alone” value in the data set with BE(2)-C cells [1] (100 ng/ml doxorubicin) is “significantly increased the amount of DSBs”. Further, in the data set with BE(2)-C cells [1] (verapamil 10 µM), the “DSBs (γH2A.X), treatment alone in the absence of doxorubicin” value is “increase DSBs”. For the same compound, the “cell surface LAMP-1 levels” value with BE(2)-C cells [2] is on record as “reduced surface LAMP-1 levels”. Besides, the “cell surface P-gp levels” value with P-glycoprotein is on record as “slightly increased surface P-gp levels”. Besides, in data set [3], the “cell death in proliferating fibroblasts, combination with 100 ng/ml doxorubicin, 24 h or 48 h” value was “did not induce significant cell death”. For the same compound, the “DSBs in comet assays, addition to doxorubicin treatment” value with BE(2)-C cells [4] (tubastatin A 7.5 µM + doxorubicin 100 ng/ml) is “substantially increased doxorubicin induced DSBs”. For the same compound, the “DSBs in comet assays, single treatment” value in the data set on BE(2)-C cells [4] (tubastatin A 7.5 µM or doxorubicin 100 ng/ml) is “increased DSBs only trend-wise”.
